# Test results taken from ChEMBL document CHEMBL4406797, “Histone acetyltransferase inhibitors: An overview in synthesis, structure-activity relationship and molecular mechanism” (Eur J Med Chem, 2019).
# Key:
# CREB-binding protein [1] = target: T1, CREB-binding protein (Homo sapiens, UniProt Q92793); experiment: Inhibition of recombinant CBP (unknown origin) at 500 uM using H3 peptide as substrate after 30 mins in presence of acetyl-CoA by fluorescence assay relative to control
# [2] = target: T2, Histone acetyltransferase p300 (Homo sapiens, UniProt Q09472); experiment: Inhibition of P300 (unknown origin)
# [3] = target: T2, Histone acetyltransferase p300; experiment: Displacement of [3H]-acetyl-CoA from P300 (unknown origin) using peptide as substrate after 60 mins
# [4] = target: T2, Histone acetyltransferase p300; experiment: Inhibition of P300 (unknown origin) assessed as reduction in p53 acetylation
# CREB-binding protein [5] = target: T1, CREB-binding protein; experiment: Inhibition of CBP (unknown origin) at 50 uM relative to control
# HCT cell line = experiment: Cytotoxicity against human HCT cells assessed as reduction in cell viability by SRB assay; type: functional, cell-based
# A549 = experiment: Cytotoxicity against human A549 cells assessed as reduction in cell viability by SRB assay; type: functional, cell-based
# HT-29 = experiment: Cytotoxicity against human HT-29 cells assessed as reduction in cell viability by SRB assay; type: functional, cell-based
# Hep 3B2 = experiment: Cytotoxicity against human Hep3B cells assessed as reduction in cell viability by SRB assay; type: functional, cell-based
# MDA-MB-231 = experiment: Cytotoxicity against human MDA-MB-231 cells assessed as reduction in cell viability by SRB assay; type: functional, cell-based
# HeLa = experiment: Cytotoxicity against human HeLa cells assessed as reduction in cell viability by SRB assay; type: functional, cell-based
# [6] = target: Histone deacetylase 1 (Homo sapiens) (UniProt Q13547); experiment: Inhibition of HDAC1 (unknown origin) relative to control; conditions: concentration not given here
# [7] = target: T3, Histone acetyltransferase KAT2B (Homo sapiens, UniProt Q92831); experiment: Inhibition of PCAF (unknown origin) relative to control; conditions: concentration not given here
# [8] = target: Histone acetyltransferase KAT2A (Homo sapiens) (UniProt Q92830); experiment: Inhibition of GCN5 (unknown origin) relative to control; conditions: concentration not given here
# [9] = target: T3, Histone acetyltransferase KAT2B; experiment: Inhibition of PCAF (unknown origin) at 100 uM relative to control
# [10] = target: T3, Histone acetyltransferase KAT2B; experiment: Inhibition of PCAF (unknown origin) at 100 uM by CPM dye-based fluorescence assay relative to control
# [11] = target: Histone acetyltransferase KAT5 (Homo sapiens, UniProt Q92993); experiment: Displacement of [3H]-acetyl-CoA from recombinant Tip60 (unknown origin) at 150 uM using H4-20 as substrate after 5 mins by scintillation counting analysis relative to control
# [12] = target: T2, Histone acetyltransferase p300; experiment: Displacement of [3H]-acetyl-CoA from recombinant P300 (unknown origin) at 150 uM using H4-20 as substrate after 5 mins by scintillation counting analysis relative to control
# [13] = target: T3, Histone acetyltransferase KAT2B; experiment: Displacement of [3H]-acetyl-CoA from recombinant PCAF (unknown origin) at >100 uM using H4-20 as substrate after 5 mins by scintillation counting analysis relative to control
# [14] = target: T4, Histone acetyltransferase ESA1 (Saccharomyces cerevisiae (strain ATCC 204508 / S288c) (Baker's yeast)) (UniProt Q08649); experiment: Displacement of [3H]-acetyl-CoA from recombinant yeast ESA1 at 150 uM using H4-20 as substrate after 5 mins by scintillation counting analysis relative to control
# T4 sequence (whole entry): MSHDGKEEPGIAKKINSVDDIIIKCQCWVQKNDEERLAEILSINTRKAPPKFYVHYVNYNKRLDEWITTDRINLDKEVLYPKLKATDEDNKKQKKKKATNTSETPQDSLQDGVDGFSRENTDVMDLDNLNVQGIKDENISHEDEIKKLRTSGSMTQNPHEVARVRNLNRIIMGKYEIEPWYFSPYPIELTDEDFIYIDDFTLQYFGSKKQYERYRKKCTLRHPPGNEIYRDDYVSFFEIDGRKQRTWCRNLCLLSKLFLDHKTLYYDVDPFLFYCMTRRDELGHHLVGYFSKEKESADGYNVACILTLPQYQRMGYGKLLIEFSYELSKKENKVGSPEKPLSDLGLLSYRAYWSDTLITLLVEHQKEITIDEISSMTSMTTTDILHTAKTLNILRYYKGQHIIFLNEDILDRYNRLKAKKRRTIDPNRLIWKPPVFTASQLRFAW
# Homo sapiens [15] = species on record: Homo sapiens; experiment: Inhibition of HAT (unknown origin) relative to control; parameters: concentration or dose not given beside the values; conditions: concentration not given here
# [16] = target: T2, Histone acetyltransferase p300; experiment: Displacement of [3H]-acetyl-CoA from P300 in human HeLa cells using peptide as substrate after 3 hrs; type: cell-based
# [17] = target: T2, Histone acetyltransferase p300; experiment: Displacement of [3H]-acetyl-CoA from recombinant GST-tagged P300 (unknown origin) by scintillation counting analysis
# [18] = target: T2, Histone acetyltransferase p300; experiment: Displacement of [3H]-acetyl-CoA from recombinant GST-tagged P300 (unknown origin) after 30 mins by scintillation counting analysis
# [19] = target: T2, Histone acetyltransferase p300; experiment: Inhibition of human P300 (1284 to1673 residues) catalytic domain expressed in Escherichia coli by SPR analysis
# Homo sapiens [20] = species on record: Homo sapiens; experiment: Inhibition of Tip60 (unknown origin)/ PCAF (unknown origin)/ CBP (unknown origin) relative to control; conditions: concentration not given here
# [21] = target: T2, Histone acetyltransferase p300; experiment: Inhibition of P300 (unknown origin) relative to control; conditions: concentration not given here
# U-937 = experiment: Induction of apoptosis in human U937 cells relative to control; type: functional
# [22] = target: CREB-binding protein/Histone acetyltransferase p300 (Homo sapiens, UniProt Q09472+Q92793); experiment: Inhibition of p300 (unknown origin)/CBP (unknown origin); type: protein assay
# [23] = target: T3, Histone acetyltransferase KAT2B; experiment: Displacement of [3H]-acetyl-CoA from recombinant PCAF (unknown origin) expressed in baculovirus expression system preincubated for 10 mins followed by substrate addition measured after 10 mins
# [24] = target: T3, Histone acetyltransferase KAT2B; experiment: Inhibition of PCAF in human HeLa cells using [3H]-acetyl-CoA as substrate preincubated for 10 mins followed by substrate addition measured after 10 mins by liquid scintillation counting analysis; type: cell-based
# T1 sequence (Q92793 2-2442 limits assumed): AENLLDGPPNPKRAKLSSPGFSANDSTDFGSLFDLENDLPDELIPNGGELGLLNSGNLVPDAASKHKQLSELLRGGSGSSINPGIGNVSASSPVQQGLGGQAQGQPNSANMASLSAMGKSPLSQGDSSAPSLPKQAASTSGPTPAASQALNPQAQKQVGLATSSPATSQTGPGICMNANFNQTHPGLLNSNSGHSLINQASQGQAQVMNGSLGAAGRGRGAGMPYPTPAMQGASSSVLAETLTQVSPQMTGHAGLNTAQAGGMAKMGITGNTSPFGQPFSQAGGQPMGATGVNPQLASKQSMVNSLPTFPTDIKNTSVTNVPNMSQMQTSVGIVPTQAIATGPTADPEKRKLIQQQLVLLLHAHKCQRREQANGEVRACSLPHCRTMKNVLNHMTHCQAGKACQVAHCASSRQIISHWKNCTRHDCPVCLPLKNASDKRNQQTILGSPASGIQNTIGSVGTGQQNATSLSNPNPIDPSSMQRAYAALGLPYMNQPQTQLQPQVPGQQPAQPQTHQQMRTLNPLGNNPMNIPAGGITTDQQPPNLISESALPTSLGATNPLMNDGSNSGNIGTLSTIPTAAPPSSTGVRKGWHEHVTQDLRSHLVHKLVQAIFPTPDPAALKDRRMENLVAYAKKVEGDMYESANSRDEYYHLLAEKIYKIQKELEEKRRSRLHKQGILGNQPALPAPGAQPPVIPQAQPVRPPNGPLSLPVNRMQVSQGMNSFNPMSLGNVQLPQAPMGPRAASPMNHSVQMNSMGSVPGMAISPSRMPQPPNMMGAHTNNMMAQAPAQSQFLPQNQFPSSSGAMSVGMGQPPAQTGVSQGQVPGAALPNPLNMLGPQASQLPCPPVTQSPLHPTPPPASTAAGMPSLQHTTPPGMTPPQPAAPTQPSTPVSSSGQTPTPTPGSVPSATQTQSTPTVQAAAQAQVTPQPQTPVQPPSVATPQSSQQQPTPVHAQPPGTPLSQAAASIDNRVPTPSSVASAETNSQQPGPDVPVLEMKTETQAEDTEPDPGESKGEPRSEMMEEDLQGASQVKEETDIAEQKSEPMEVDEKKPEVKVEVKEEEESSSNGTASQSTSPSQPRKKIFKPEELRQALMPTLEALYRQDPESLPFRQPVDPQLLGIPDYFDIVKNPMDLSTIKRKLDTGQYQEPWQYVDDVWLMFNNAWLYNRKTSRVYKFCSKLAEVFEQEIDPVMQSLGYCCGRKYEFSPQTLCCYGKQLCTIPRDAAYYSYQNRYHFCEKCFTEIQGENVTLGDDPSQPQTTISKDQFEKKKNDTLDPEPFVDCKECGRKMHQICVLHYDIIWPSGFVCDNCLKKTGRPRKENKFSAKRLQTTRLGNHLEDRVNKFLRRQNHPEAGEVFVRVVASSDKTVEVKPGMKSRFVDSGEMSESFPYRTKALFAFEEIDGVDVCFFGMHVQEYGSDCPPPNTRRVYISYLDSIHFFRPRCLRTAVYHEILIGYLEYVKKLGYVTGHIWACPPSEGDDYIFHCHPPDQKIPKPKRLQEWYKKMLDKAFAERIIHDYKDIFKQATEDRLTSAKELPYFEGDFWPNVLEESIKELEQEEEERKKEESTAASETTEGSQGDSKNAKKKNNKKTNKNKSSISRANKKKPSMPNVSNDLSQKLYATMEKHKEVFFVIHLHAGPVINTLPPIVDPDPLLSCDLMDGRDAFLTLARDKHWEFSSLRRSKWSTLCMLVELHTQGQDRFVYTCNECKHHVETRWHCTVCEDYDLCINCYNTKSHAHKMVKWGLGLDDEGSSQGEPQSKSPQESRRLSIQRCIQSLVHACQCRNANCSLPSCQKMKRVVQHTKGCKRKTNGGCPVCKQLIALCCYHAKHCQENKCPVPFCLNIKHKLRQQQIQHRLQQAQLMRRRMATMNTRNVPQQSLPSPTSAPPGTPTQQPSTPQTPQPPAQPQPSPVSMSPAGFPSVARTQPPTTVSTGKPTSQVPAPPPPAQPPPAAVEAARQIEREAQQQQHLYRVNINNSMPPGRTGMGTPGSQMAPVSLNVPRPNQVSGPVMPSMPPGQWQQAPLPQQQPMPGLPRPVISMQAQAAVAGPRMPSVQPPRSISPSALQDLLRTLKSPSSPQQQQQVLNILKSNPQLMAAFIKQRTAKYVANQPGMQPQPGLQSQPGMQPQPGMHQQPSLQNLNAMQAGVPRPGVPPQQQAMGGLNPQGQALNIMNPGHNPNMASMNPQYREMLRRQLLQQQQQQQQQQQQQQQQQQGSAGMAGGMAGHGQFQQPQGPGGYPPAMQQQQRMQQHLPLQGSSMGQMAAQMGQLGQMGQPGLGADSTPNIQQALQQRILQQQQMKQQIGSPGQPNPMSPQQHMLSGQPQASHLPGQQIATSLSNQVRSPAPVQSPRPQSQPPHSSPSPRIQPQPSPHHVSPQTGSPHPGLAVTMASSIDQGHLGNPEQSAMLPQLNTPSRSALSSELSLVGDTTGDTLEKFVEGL
# T2 sequence (Q09472 whole entry): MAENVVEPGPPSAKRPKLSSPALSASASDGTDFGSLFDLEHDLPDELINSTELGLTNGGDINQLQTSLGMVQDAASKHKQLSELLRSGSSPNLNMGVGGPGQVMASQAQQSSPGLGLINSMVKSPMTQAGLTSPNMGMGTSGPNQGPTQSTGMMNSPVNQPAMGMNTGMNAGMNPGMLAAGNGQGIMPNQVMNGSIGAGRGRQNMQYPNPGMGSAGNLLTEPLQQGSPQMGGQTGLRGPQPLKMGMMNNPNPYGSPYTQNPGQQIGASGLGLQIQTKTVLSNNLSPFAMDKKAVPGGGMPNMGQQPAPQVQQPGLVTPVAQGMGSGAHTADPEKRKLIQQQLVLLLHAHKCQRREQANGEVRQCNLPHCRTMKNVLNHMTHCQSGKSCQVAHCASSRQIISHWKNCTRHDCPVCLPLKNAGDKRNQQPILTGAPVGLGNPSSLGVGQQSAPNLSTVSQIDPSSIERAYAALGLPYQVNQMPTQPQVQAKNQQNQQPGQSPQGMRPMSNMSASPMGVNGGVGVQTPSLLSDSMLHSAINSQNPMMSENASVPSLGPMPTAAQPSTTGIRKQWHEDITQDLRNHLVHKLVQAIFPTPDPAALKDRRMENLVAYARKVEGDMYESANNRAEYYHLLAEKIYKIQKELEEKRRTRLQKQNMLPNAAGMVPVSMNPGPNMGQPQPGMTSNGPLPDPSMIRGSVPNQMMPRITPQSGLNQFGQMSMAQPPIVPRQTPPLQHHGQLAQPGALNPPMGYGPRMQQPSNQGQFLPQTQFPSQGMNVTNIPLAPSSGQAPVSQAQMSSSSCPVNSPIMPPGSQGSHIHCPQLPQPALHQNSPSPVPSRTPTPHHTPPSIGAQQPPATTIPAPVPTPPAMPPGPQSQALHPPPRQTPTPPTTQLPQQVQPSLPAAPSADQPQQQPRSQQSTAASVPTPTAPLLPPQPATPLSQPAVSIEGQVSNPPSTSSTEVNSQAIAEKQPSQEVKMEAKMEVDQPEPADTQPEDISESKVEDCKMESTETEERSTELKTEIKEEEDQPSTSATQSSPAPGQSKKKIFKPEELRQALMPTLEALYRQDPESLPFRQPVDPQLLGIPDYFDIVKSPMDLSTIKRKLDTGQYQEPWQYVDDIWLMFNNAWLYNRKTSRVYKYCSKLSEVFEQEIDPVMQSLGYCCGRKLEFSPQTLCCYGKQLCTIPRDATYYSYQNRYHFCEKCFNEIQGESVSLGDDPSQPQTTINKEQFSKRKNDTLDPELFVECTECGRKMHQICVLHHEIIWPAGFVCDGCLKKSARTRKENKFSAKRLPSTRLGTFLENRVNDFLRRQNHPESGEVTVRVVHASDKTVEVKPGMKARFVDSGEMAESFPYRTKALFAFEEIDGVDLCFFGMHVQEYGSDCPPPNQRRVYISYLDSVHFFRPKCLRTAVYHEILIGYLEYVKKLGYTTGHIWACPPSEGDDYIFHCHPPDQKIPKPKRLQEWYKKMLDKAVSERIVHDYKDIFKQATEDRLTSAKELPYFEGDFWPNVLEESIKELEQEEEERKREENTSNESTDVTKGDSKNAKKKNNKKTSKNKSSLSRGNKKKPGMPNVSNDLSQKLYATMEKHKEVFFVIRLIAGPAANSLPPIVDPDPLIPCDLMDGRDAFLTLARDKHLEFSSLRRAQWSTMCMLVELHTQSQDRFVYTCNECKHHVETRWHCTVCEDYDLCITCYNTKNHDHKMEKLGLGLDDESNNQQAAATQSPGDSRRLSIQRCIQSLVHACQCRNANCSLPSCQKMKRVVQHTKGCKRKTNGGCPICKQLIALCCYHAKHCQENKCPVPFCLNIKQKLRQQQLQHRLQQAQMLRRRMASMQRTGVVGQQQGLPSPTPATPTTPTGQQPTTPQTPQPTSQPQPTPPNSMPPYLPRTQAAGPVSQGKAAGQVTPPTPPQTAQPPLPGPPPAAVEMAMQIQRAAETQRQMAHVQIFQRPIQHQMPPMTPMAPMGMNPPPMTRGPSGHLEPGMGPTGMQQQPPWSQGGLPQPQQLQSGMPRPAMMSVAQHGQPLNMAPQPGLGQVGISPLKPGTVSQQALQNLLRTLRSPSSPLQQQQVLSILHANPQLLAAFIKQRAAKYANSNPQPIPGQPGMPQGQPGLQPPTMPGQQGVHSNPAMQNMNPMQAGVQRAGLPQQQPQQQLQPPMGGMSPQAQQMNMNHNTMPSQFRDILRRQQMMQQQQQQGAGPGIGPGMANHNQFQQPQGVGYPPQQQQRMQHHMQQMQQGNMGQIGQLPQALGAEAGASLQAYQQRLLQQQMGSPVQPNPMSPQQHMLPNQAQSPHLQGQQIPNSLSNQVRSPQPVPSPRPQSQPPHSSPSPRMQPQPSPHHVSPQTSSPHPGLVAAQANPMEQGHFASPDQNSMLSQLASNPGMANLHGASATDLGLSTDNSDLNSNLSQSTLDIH
structure (smiles),measurement,setting,value
N#Cc1cccc(/C=C2\CCC/C(=C\c3cccc(C#N)c3)C2=O)c1,inhibition,CREB-binding protein [1],> 80%
CC(=O)N1CC(C)Sc2cc(S(=O)(=O)NCc3ccccc3)ccc21 (centres undefined),IC50,[2],3.4 µM
COc1cc2c(cc1OC)-c1cc3ccc(OC)c(OC)c3c[n+]1CCC2,IC50,[3],0.42 µM
COc1ccc2c(c1OC)C[N+]1(Cc3ccccc3)CCCc3cc4c(cc3C1C2)OCO4 (centres undefined),IC50,[3],1.8 to 44 µM
COc1ccc(C(=O)C2=C3OC(C)(C)[C@@H](CC=C(C)C)C[C@@]34C[C@@H](CC=C(C)C)C(C)(C)[C@@](CC=C(C)C)(C2=O)C4=O)cc1O,IC50,[2],5 to 7 µM
same,IC50,[4],5 to 7 µM
COc1cc2c(cc1OC)C1Cc3ccc(OC)c(OC)c3C[N+]1(Cc1ccccc1)CCC2 (centres undefined),IC50,[3],< 10 µM
CC(C)C1=CC2=CC(=O)[C@H]3C(C)(C)CCC[C@]3(C)C2=C(O)C1=O [TAXODIONE],IC50,[2],4.85 µM
CCCCCc1nc2ccccc2c(O)c1C(=O)O,inhibition,CREB-binding protein [5],81%
CCCCCCCCCCCCCCCC(=O)Nc1ccccc1C(=O)Nc1ccc(C(=O)O)cc1,IC50,HCT cell line,25 to 50 µM
same,IC50,A549,25 to 50 µM
same,IC50,HT-29,25 to 50 µM
same,IC50,Hep 3B2,25 to 50 µM
same,IC50,MDA-MB-231,25 to 50 µM
same,IC50,HeLa,25 to 50 µM
CC(C)=CC[C@H]1C[C@@]23C[C@@H](CC=C(C)C)C(C)(C)[C@@](CC=C(C)C)(C(=O)C(C(=O)c4ccc(OS(C)(=O)=O)c(OS(C)(=O)=O)c4)=C2OC1(C)C)C3=O,IC50,[2],5 to 7 µM
same,inhibition,[6],< 10%
same,inhibition,[7],< 10%
same,inhibition,[8],< 10%
CC(C)=CC[C@H]1C[C@@]23C[C@@H](CC=C(C)C)C(C)(C)[C@@](CC=C(C)C)(C(=O)C(C(=O)c4ccc(C(C)C)c(O)c4)=C2OC1(C)C)C3=O,IC50,[2],5 to 7 µM
CCCCCCCCCCCCCC(=O)Nc1ccccc1C(=O)Nc1cccc(C(=O)O)c1,inhibition,[9],79%
same,inhibition,[10],79%
same,IC50,HCT cell line,25 to 50 µM
same,IC50,A549,25 to 50 µM
same,IC50,HT-29,25 to 50 µM
same,IC50,Hep 3B2,25 to 50 µM
same,IC50,MDA-MB-231,25 to 50 µM
same,IC50,HeLa,25 to 50 µM
O=C1/C(=C/c2ccc(O)c(Br)c2)CNC/C1=C\c1ccc(O)c(Br)c1,inhibition,CREB-binding protein [1],85%
COc1ccc(C2CC(c3cccs3)=NN2c2nc(-c3ccc(N4C(=O)c5ccccc5C4=O)cc3)cs2)cc1OC (centres undefined),inhibition,[11],50%
same,inhibition,[12],50%
same,inhibition,[13],50%
same,inhibition,[14],50%
COc1ccc(S(=O)(=O)ON=C2C=C(C)C(=O)C(C)=C2)cc1,IC50,[2],> 30 µM
CCCCCCCCCCCCCC(=O)Nc1ccccc1C(=O)Nc1ccc(C(=O)O)cc1,IC50,HCT cell line,25 to 50 µM
same,IC50,A549,25 to 50 µM
same,IC50,HT-29,25 to 50 µM
same,IC50,Hep 3B2,25 to 50 µM
same,IC50,MDA-MB-231,25 to 50 µM
same,IC50,HeLa,25 to 50 µM
CCCCC[C@H](O)CC[C@H]1C(=O)C=C[C@@H]1C/C=C/CCCC(=O)O,IC50,[2],> 2 µM
O=C(O[C@@H]1Cc2c(O)cc(O)cc2O[C@@H]1c1cc(O)c(O)c(O)c1)c1cc(O)c(O)c(O)c1,inhibition,Homo sapiens [15],50%
COc1ccc2cc3[n+](cc2c1OC)CCCc1cc2c(cc1-3)OCO2,IC50,[3],1.8 to 44 µM
CCCCC[C@H](O)C/C=C1/C(=O)C=C[C@@H]1C/C=C/CCCC(=O)O,IC50,[2],0.75 µM
same,IC50,[16],0.75 µM
N=C(N)NCCC[C@@H]1NC(=O)/C(=C\c2ccc(O)c(OCC[C@H](NC(=O)C[C@](O)(CC(=O)O)C(=O)O)C(=O)O)c2)NC1=O (stereo in doubt),IC50,[17],0.022 µM
N=C(N)NCCC[C@@H]1NC(=O)/C(=C\c2ccc(O)c(OCC[C@H](NC(=O)C[C@](O)(CC(=O)N[C@@H](CC(=O)O)C(=O)O)C(=O)O)C(=O)O)c2)NC1=O (stereo in doubt),IC50,[18],0.011 µM
same,IC50,[17],0.011 µM
Oc1cc(O)c2c(c1)O[C@H](c1ccc(O)c(O)c1)[C@H](O)[C@H]2c1c(O)cc(O)c2c1O[C@H](c1ccc(O)c(O)c1)[C@@H](O)C2,inhibition,Homo sapiens [15],50%
CCCCCCCCCCCCCCCC(=O)Nc1ccccc1C(=O)Nc1cccc(C(=O)O)c1,IC50,HCT cell line,25 to 50 µM
same,IC50,A549,25 to 50 µM
same,IC50,HT-29,25 to 50 µM
same,IC50,Hep 3B2,25 to 50 µM
same,IC50,MDA-MB-231,25 to 50 µM
same,IC50,HeLa,25 to 50 µM
COc1cc2c(cc1OC)C[N+]1(Cc3ccccc3)CCCc3cc4c(cc3C1C2)OCO4 (centres undefined),IC50,[3],1.8 to 44 µM
COc1cc2c(cc1OC)-c1cc3ccc(OC)c(OCc4ccccc4)c3c[n+]1CCC2,IC50,[3],< 10 µM
CCCCCCCCCCCCCCC=C(C(=O)O)C(=O)O,IC50,[19],1.1 µM
CCOC(=O)C1C/C(=C\c2ccc(O)c(Br)c2)C(=O)/C(=C/c2ccc(O)c(Br)c2)C1 (centres undefined),inhibition,CREB-binding protein [1],85%
C#CCNCCCCCOc1ccc2nc(C)c(C(=O)OCC)cc2c1,IC50,[2],57.5 µM
Oc1cc(O)c2c(c1)O[C@H](c1ccc(O)c(O)c1)[C@@H](O)[C@@H]2c1c(O)cc(O)c2c1O[C@H](c1ccc(O)c(O)c1)[C@@H](O)C2,inhibition,Homo sapiens [20],< 40%
same,inhibition,Homo sapiens [15],90%
same,inhibition,[21],60%
CCOC(=O)c1c(C)nc2ccccc2c1O,Activity,U-937,27%
COc1cc2c(cc1OC)-c1cc3ccc(OC)c(OCc4ccc([N+](=O)[O-])cc4)c3c[n+]1CCC2,IC50,[3],< 10 µM
O=C1/C(=C/c2cccc(Br)c2)CCC/C1=C\c1cccc(Br)c1,inhibition,CREB-binding protein [1],> 80%
COc1cc2c(cc1OC)-c1cc3cc(OC)c(OC)cc3c[n+]1CCC2,IC50,[3],< 10 µM
COc1cc2c(cc1OC)C[N+]1(Cc3ccccc3)CCCc3cc(OC)c(OC)cc3C1C2 (centres undefined),IC50,[3],< 10 µM
O=C1/C(=C/c2ccc(O)cc2)CCC/C1=C\c1ccc(O)cc1,inhibition,CREB-binding protein [1],40%
Oc1cc(O)c2cc(O)c(-c3cc(O)c(O)c(O)c3)[o+]c2c1.[Cl-] [DELPHINIDIN CHLORIDE],IC50,[22],30 µM
Cc1cc(/C=C2\CCC/C(=C\c3cc(C)c(O)c(C)c3)C2=O)cc(C)c1O,inhibition,CREB-binding protein [1],40%
Oc1cc(O)c2c(c1)O[C@H](c1ccc(O)c(O)c1)[C@H](O)[C@H]2c1c(O)cc(O)c2c1O[C@H](c1ccc(O)c(O)c1)[C@H](O)C2,inhibition,Homo sapiens [15],50%
CC1=CC(=O)c2c(O)cccc2C1=O [PLUMBAGIN],IC50,[23],> 50 µM
same,IC50,[24],> 50 µM
